From ChEMBL document CHEMBL2331361, “Sulfonylpiperidines as novel, antibacterial inhibitors of Gram-positive thymidylate kinase (TMK)” (Bioorg Med Chem Lett, 2013)
Converted amounts (≈) assume the structure as drawn.

What was measured:
[1] = target: Voltage-gated inwardly rectifying potassium channel KCNH2 (Homo sapiens, UniProt Q12809); experiment: Inhibition of human ERG
[2] = target: Cytochrome P450 2D6 (Homo sapiens, UniProt P10635); experiment: Inhibition of CYP2D6 (unknown origin); assay type: ADME
[3] = target: Cytochrome P450 2C9 (Homo sapiens, UniProt P11712); experiment: Inhibition of CYP2C9 (unknown origin); assay type: ADME
[4] = target: Cytochrome P450 2C19 (Homo sapiens, UniProt P33261); experiment: Inhibition of CYP2C19 (unknown origin); assay type: ADME
[5] = target: Cytochrome P450 1A2 (Homo sapiens, UniProt P05177); experiment: Inhibition of CYP1A2 (unknown origin); assay type: ADME
[6] = target: Cytochrome P450 3A4 (Homo sapiens, UniProt P08684); experiment: Inhibition of CYP3A4 (unknown origin); assay type: ADME
[7] = Intrinsic clearance in rat liver microsomes; assay type: ADME, Microsome; settings: read-out: CLH
[8] = Intrinsic clearance in rat hepatocytes assessed per million cells; assay type: ADME, cell-based, Hepatocyte; settings: read-out: CLH
[9] = Equilibrium solubility of the compound at pH 7.4; assay type: physicochemical; settings: buffer
[10] = system: Plasma; experiment: Unbound fraction in human plasma; assay type: ADME, cell-free
[11] = Cytotoxicity against sheep erythrocytes assessed hemolysis; assay type: cell-based, Ovis aries; settings: erythrocyte
[12] = system: Candida albicans; experiment: Antimicrobial activity against Candida albicans; assay type: functional
[13] = Cytotoxicity against human A549 cells; assay type: cell-based; settings: read-out: MIC
[14] = system: Klebsiella pneumoniae; experiment: Antimicrobial activity against Klebsiella pneumoniae ARC1865; assay type: functional
[15] = system: Pseudomonas aeruginosa; experiment: Antimicrobial activity against Pseudomonas aeruginosa ARC545; assay type: functional
[16] = system: Escherichia coli; experiment: Antimicrobial activity against Escherichia coli ARC523; assay type: functional
[17] = system: Haemophilus influenzae; experiment: Antimicrobial activity against Haemophilus influenzae ARC446; assay type: functional
[18] = system: Enterococcus faecalis; experiment: Antimicrobial activity against vancomycin-resistant Enterococcus faecalis ARC1618; assay type: functional
[19] = system: Enterococcus faecium; experiment: Antimicrobial activity against linezolid-resistant Enterococcus faecium ARC1239; assay type: functional
[20] = system: Staphylococcus lugdunensis; experiment: Antimicrobial activity against Staphylococcus lugdunensis; assay type: functional
[21] = system: Staphylococcus haemolyticus; experiment: Antimicrobial activity against Staphylococcus haemolyticus; assay type: functional
[22] = system: Staphylococcus epidermidis; experiment: Antimicrobial activity against Staphylococcus epidermidis ARC323; assay type: functional
[23] = system: Streptococcus agalactiae; experiment: Antimicrobial activity against Streptococcus agalactiae; assay type: functional
[24] = system: Streptococcus pyogenes; experiment: Antimicrobial activity against Streptococcus pyogenes ARC838; assay type: functional
[25] = target: Thymidylate kinase (Homo sapiens, UniProt P23919); experiment: Inhibition of human thymidylate kinase
[26] = Inhibition of Escherichia coli thymidylate kinase
[27] = system: Streptococcus pneumoniae; experiment: Antimicrobial activity against Streptococcus pneumoniae ARC548; assay type: functional
[28] = system: Staphylococcus aureus; experiment: Antimicrobial activity against methicillin- and quinolone-resistant Staphylococcus aureus ARC517; assay type: functional
[29] = system: Staphylococcus aureus; experiment: Antimicrobial activity against methicillin- and quinolone-sensitive Staphylococcus aureus ARC516; assay type: functional
[30] = Distribution co-efficient, log D of the compound; settings: octanol/water
[31] = Inhibition of Staphylococcus aureus thymidylate kinase
[32] = Inhibition of Streptococcus pneumoniae thymidylate kinase

Cytochrome P450 2C19, sequence (P33261 whole entry): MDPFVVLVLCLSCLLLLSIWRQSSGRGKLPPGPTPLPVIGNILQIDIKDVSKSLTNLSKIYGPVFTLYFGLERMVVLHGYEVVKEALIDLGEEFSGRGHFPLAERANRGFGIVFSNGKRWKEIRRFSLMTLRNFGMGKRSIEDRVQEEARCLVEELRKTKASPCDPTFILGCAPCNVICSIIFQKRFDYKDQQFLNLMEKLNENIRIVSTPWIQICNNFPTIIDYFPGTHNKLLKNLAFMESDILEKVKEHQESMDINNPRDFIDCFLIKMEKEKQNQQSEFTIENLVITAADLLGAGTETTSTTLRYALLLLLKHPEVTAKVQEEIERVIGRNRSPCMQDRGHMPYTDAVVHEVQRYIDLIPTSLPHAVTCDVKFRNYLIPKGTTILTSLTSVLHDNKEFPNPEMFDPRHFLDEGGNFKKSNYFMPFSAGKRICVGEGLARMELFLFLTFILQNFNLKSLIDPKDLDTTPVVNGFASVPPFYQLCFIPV
Thymidylate kinase, sequence (P23919 whole entry): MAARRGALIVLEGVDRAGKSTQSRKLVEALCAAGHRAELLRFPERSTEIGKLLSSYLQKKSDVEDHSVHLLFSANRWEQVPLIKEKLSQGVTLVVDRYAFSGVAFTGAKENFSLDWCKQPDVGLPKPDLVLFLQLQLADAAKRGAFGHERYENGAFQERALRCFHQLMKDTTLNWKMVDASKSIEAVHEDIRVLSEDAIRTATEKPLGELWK
Voltage-gated inwardly rectifying potassium channel KCNH2, sequence (Q12809 whole entry): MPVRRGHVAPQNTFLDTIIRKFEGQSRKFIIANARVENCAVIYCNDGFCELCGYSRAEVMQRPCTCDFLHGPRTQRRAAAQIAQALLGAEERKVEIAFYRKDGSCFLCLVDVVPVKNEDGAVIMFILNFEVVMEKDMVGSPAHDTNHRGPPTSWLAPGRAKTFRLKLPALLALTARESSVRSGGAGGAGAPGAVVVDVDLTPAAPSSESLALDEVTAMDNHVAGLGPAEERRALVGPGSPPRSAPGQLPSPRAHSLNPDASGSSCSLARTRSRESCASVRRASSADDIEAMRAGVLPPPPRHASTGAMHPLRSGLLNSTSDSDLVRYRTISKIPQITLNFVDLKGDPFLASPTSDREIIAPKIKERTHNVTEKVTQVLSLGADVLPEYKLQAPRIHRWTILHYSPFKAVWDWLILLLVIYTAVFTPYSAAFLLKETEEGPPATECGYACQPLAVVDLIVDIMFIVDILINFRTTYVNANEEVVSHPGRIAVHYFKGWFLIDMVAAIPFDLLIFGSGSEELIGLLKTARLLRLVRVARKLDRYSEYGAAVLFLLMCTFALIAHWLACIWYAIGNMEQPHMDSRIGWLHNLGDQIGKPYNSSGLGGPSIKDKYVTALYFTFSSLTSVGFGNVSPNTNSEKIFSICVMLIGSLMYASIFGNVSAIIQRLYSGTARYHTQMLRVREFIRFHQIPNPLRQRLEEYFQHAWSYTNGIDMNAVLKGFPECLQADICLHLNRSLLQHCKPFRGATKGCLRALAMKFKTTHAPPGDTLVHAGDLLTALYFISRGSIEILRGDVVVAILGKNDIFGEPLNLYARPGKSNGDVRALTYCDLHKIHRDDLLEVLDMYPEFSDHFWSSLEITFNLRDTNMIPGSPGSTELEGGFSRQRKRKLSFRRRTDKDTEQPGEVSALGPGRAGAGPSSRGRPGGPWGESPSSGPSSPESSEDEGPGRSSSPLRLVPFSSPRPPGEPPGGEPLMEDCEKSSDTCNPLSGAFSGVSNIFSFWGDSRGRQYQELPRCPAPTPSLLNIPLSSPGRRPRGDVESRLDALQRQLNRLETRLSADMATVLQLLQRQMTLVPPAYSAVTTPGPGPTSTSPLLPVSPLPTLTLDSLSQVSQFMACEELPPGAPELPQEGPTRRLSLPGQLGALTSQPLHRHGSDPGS
Cytochrome P450 3A4, sequence (P08684 whole entry): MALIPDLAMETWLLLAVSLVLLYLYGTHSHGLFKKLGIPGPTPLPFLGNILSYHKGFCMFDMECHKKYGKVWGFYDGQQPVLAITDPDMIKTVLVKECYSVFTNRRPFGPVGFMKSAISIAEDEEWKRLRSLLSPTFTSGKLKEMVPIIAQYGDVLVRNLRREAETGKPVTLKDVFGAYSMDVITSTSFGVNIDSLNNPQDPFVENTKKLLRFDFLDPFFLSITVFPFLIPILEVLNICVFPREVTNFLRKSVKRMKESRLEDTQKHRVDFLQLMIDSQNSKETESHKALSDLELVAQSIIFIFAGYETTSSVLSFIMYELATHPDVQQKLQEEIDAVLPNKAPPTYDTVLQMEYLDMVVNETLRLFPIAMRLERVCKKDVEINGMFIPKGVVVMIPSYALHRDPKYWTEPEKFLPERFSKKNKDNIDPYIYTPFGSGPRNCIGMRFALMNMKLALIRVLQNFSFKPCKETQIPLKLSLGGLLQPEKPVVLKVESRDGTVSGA
Cytochrome P450 2C9, sequence (P11712 whole entry): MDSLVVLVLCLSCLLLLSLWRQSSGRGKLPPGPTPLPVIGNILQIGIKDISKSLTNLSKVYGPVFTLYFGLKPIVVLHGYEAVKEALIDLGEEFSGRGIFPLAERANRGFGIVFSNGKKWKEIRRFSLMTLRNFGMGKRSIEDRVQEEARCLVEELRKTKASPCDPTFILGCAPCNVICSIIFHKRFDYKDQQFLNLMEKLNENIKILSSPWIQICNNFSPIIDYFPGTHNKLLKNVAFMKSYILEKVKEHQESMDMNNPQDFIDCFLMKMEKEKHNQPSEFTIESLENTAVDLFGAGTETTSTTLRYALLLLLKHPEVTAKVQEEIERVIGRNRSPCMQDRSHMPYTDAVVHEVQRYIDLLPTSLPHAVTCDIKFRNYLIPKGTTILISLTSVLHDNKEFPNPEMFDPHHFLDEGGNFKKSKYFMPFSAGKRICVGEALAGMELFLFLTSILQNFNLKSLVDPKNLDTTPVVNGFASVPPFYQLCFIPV
Cytochrome P450 1A2, sequence (P05177 whole entry): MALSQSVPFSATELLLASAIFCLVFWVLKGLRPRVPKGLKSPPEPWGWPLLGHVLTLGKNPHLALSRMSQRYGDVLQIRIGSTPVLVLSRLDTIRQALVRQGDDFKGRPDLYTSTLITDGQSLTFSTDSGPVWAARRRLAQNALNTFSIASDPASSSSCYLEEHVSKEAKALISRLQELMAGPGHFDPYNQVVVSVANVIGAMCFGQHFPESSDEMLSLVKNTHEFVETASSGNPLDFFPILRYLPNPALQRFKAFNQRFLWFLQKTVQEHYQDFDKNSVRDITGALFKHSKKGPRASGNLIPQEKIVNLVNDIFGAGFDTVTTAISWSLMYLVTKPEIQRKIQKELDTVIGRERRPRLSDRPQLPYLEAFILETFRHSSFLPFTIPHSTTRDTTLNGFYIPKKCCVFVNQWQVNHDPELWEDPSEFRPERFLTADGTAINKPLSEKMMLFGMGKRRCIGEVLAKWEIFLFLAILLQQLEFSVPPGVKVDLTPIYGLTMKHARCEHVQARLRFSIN
Cytochrome P450 2D6, sequence (P10635 whole entry): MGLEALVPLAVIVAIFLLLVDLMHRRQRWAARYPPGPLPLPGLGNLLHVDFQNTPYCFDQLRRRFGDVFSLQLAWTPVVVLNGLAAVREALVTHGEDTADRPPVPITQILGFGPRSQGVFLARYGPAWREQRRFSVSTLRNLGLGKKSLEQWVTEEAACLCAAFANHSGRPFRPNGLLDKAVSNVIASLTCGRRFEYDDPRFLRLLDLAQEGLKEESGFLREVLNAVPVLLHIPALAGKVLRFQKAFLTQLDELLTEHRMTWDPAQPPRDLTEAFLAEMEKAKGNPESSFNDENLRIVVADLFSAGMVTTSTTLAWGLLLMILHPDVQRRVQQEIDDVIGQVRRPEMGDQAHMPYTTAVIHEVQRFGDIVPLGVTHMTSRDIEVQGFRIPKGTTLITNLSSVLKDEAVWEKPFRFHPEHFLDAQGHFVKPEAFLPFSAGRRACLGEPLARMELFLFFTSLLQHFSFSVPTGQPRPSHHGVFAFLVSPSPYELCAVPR

`Cc1cn([C@H]2CCCN(S(=O)(=O)c3ccc(O)c(Oc4cccc(Cl)c4)c3)C2)c(=O)[nH]c1=O` gave an IC50 [1] of 27000 nM, an IC50 [2] greater than 20000 nM and an IC50 [3] greater than 20000 nM. The IC50 [4] was greater than 20000 nM, the IC50 [5] was greater than 20000 nM and the IC50 [6] was greater than 20000 nM. For the same compound, the microsomal CLint [7] was 27 µL/min/mg, the hepatocyte CLint [8] was 45 µL/min/1e6 cells and the solubility thermodynamic [9] was 193 µM (≈ 94.9 µg/mL). The Fu [10] was 1%, the MIC [11] was greater than 64 µg/mL and the MIC [12] was greater than 64 µg/mL. The MCC [13] was greater than 64 µg/mL, the MIC [14] was greater than 64 µg/mL and the MIC [15] was greater than 64 µg/mL. For the same compound, the MIC [16] was greater than 64 µg/mL, the MIC [17] was greater than 64 µg/mL and the MIC [18] was 0.5 µg/mL (≈ 1.02 µM). The MIC [19] was 0.13 µg/mL (≈ 0.264 µM), the MIC [20] was 0.016 µg/mL (≈ 0.0325 µM) and the MIC [21] was 0.03 µg/mL (≈ 0.061 µM). The MIC [22] was 2 µg/mL (≈ 4.07 µM), the MIC [23] was 0.5 µg/mL (≈ 1.02 µM) and the MIC90 [24] was 0.5 µg/mL (≈ 1.02 µM). For the same compound, the IC50 [25] was greater than 200000 nM, the IC50 [26] was 4500 nM and the MIC [27] was 0.03 µg/mL (≈ 0.061 µM). It also gave an MIC90 [27] of 0.06 µg/mL (≈ 0.122 µM), an MIC [28] of 0.5 µg/mL (≈ 1.02 µM) and an MIC90 [28] of 0.5 µg/mL (≈ 1.02 µM). For the same compound, the MIC [29] was 0.25 µg/mL (≈ 0.508 µM) and the logD [30] was 2.1.

In the case of `Cc1cc(Oc2cc(S(=O)(=O)N3CCC[C@H](n4cc(C)c(=O)[nH]c4=O)C3)ccc2O)ccc1Cl`, the MIC [27] is reported as 0.25 µg/mL (≈ 0.494 µM), the MIC [28] is reported as 0.5 µg/mL (≈ 0.988 µM) and the MIC [29] is reported as 1 µg/mL (≈ 1.98 µM). For the same compound, the logD [30] was 2.4, the IC50 [31] was 3 nM and the IC50 [32] was 18 nM.

Work on `Cc1cn([C@H]2CCCN(S(=O)(=O)c3ccc(O)c(Oc4ccccc4)c3)C2)c(=O)[nH]c1=O` yielded an MIC [27] of 0.5 µg/mL (≈ 1.09 µM), an MIC [28] of 16 µg/mL (≈ 35 µM) and an MIC [29] of 16 µg/mL (≈ 35 µM). For the same compound, the logD [30] was 1.5, the IC50 [31] was 255 nM and the IC50 [32] was 14 nM.

`Cc1cn([C@H]2CCCN(S(=O)(=O)c3ccc(O)c(Oc4cccc(C(F)(F)F)c4)c3)C2)c(=O)[nH]c1=O` showed an MIC [27] of 0.1 µg/mL (≈ 0.19 µM), an MIC [28] of 2 µg/mL (≈ 3.81 µM) and an MIC [29] of 2 µg/mL (≈ 3.81 µM). For the same compound, the logD [30] was 2.3, the IC50 [31] was 64 nM and the IC50 [32] was 3 nM.

In the case of `Cc1cn([C@H]2CCCN(S(=O)(=O)c3ccc(C(=O)O)c(Oc4ccc(Cl)c(Cl)c4)c3)C2)c(=O)[nH]c1=O`, the MIC [27] is reported as 4 µg/mL (≈ 7.21 µM), the MIC [28] is reported as greater than 64 µg/mL and the MIC [29] is reported as greater than 64 µg/mL. For the same compound, the logD [30] was -0.9, the IC50 [31] was 23 nM and the IC50 [32] was less than 6 nM.

`C[C@H]1COc2c(N3CCN(C)CC3)c(F)cc3c(=O)c(C(=O)O)cn1c23.C[C@H]1COc2c(N3CCN(C)CC3)c(F)cc3c(=O)c(C(=O)O)cn1c23.O` [LEVOFLOXACIN] gave an MIC [24] of 0.25 µg/mL and an MIC90 [28] of 16 µg/mL.

With `Cc1cn([C@H]2CCCN(S(=O)(=O)c3ccc(O)c(Oc4cccc(F)c4)c3)C2)c(=O)[nH]c1=O` the MIC [27] was 0.25 µg/mL (≈ 0.526 µM), the MIC [28] was 16 µg/mL (≈ 33.6 µM) and the MIC [29] was 16 µg/mL (≈ 33.6 µM). The logD [30] was 1.6, the IC50 [31] was 57 nM and the IC50 [32] was 4 nM.

`Cc1cn([C@H]2CCCN(S(=O)(=O)c3ccc(C#N)c(Oc4cccc(Cl)c4)c3)C2)c(=O)[nH]c1=O` showed an MIC [27] of 2 µg/mL (≈ 3.99 µM), an MIC [28] greater than 64 µg/mL and an MIC [29] greater than 64 µg/mL. For the same compound, the logD [30] was 1, the IC50 [31] was 530 nM and the IC50 [32] was 23 nM.

Compound `Cc1cccc(Oc2cc(S(=O)(=O)N3CCC[C@H](n4cc(C)c(=O)[nH]c4=O)C3)ccc2C(=O)O)c1` has an MIC [27] of 16 µg/mL (≈ 32 µM), an MIC [28] greater than 64 µg/mL and an MIC [29] greater than 64 µg/mL. For the same compound, the logD [30] was -1.6 and the IC50 [32] was 6 nM.

With `Cc1cn([C@H]2CCCN(S(=O)(=O)c3ccc(C(N)=O)c(Oc4cccc(Cl)c4)c3)C2)c(=O)[nH]c1=O` the MIC [27] was 2 µg/mL (≈ 3.85 µM), the MIC [28] was greater than 64 µg/mL and the MIC [29] was greater than 64 µg/mL. For the same compound, the logD [30] was 2, the IC50 [31] was 784 nM and the IC50 [32] was 10 nM.

`Cc1cn([C@H]2CCCN(S(=O)(=O)c3ccc(O)c(Oc4cc(F)cc(Cl)c4)c3)C2)c(=O)[nH]c1=O` showed an MIC [27] of 0.05 µg/mL (≈ 0.0981 µM), an MIC [28] of 1 µg/mL (≈ 1.96 µM) and an MIC [29] of 1 µg/mL (≈ 1.96 µM). The IC50 [31] was 12 nM and the IC50 [32] was 0.7 nM.

With `COc1ccc(S(=O)(=O)N2CCC[C@H](n3cc(C)c(=O)[nH]c3=O)C2)cc1Oc1cccc(Cl)c1` the MIC [27] was 2 µg/mL (≈ 3.95 µM), the MIC [28] was 16 µg/mL (≈ 31.6 µM) and the MIC [29] was greater than 64 µg/mL. It also gave an IC50 [31] of 358 nM and an IC50 [32] of 6 nM.

Work on `Cc1cn([C@H]2CCCN(S(=O)(=O)c3cccc(Oc4ccccc4)c3)C2)c(=O)[nH]c1=O` yielded an MIC [27] greater than 64 µg/mL, an MIC [29] greater than 64 µg/mL and an IC50 [31] of 81500 nM. The IC50 [32] was 20900 nM.

For `Cc1cn([C@H]2CCCN(S(=O)(=O)c3cccc(Oc4ccc(Cl)c(Cl)c4)c3)C2)c(=O)[nH]c1=O`, the MIC [27] was 4 µg/mL (≈ 7.84 µM), the MIC [28] was 4 µg/mL (≈ 7.84 µM) and the MIC [29] was 4 µg/mL (≈ 7.84 µM). The logD [30] was greater than 3.5, the IC50 [31] was 2780 nM and the IC50 [32] was 292 nM.

In the case of `Cc1cn([C@H]2CCCN(S(=O)(=O)c3ccc(CO)c(Oc4cccc(Cl)c4)c3)C2)c(=O)[nH]c1=O`, the MIC [27] is reported as 2 µg/mL (≈ 3.95 µM), the MIC [28] is reported as 64 µg/mL (≈ 126 µM) and the MIC [29] is reported as 32 µg/mL (≈ 63.2 µM). For the same compound, the IC50 [31] was 610 nM and the IC50 [32] was 28 nM.

Work on `Cc1cn([C@H]2CCCN(S(=O)(=O)c3ccc(O)c(Oc4cccc(Br)c4)c3)C2)c(=O)[nH]c1=O` yielded an MIC [27] of 0.1 µg/mL (≈ 0.186 µM), an MIC [28] of 0.5 µg/mL (≈ 0.932 µM) and an MIC [29] of 1 µg/mL (≈ 1.86 µM). The logD [30] was 2.3, the IC50 [31] was 2 nM and the IC50 [32] was 0.7 nM.

In the case of `Cc1cn([C@H]2CCCN(S(=O)(=O)c3ccc(C(=O)O)c(Oc4cccc(Cl)c4)c3)C2)c(=O)[nH]c1=O`, the MIC [27] is reported as 2 µg/mL (≈ 3.85 µM), the MIC [28] is reported as greater than 64 µg/mL and the MIC [29] is reported as greater than 64 µg/mL. It also gave a logD [30] of -1.3, an IC50 [31] of 2 nM and an IC50 [32] of 1 nM.

With `Cc1cn([C@H]2CCCN(S(=O)(=O)c3ccc(O)c(Oc4ccc(Cl)cc4)c3)C2)c(=O)[nH]c1=O` the MIC [27] was 0.5 µg/mL (≈ 1.02 µM), the MIC [28] was 2 µg/mL (≈ 4.07 µM) and the MIC [29] was 1 µg/mL (≈ 2.03 µM). It also gave a logD [30] of 2.1, an IC50 [31] of 18 nM and an IC50 [32] of 8 nM.
